SMILES strings stand for the structures.

This assay is filed under the species Mus musculus. As to the kind of experiment: Inhibitory activity against production of nitric oxide induced by interferon gamma in mouse macrophages. The class given is functional, organism-based.
The term IC50 denotes the concentration that gives 50% inhibition. Read a high IC50 as lower potency. For the compound `CC1(C)CC[C@]2(C(N)=O)CC[C@]3(C)C(C(=O)C=C4[C@@]5(C)C=C(C#N)C(=O)C(C)(C)[C@@H]5CC[C@]43C)C2C1` (stereo not given in full), it took 0.098 nM to reach half-maximal inhibition (IC50). The figure for `CC1(C)CC[C@]2(C(=O)N3CCOCC3)CC[C@]3(C)C(C(=O)C=C4[C@@]5(C)C=C(C#N)C(=O)C(C)(C)[C@@H]5CC[C@]43C)C2C1` (stereo not given in full) is 2.4 nM. The figure for `CCCNC(=O)[C@]12CCC(C)(C)CC1C1C(=O)C=C3[C@@]4(C)C=C(C#N)C(=O)C(C)(C)[C@@H]4CC[C@@]3(C)[C@]1(C)CC2` (stereo not given in full) is 1.5 nM; for `COC(=O)[C@]12CCC(C)(C)C[C@H]1[C@H]1C(=O)C=C3[C@@]4(C)C=C(C#N)C(=O)C(C)(C)[C@@H]4CC[C@@]3(C)[C@]1(C)CC2` [BARDOXOLONE METHYL] it is 0.11 nM. Compound `CC1(C)CC[C@]2(C(=O)n3ccnc3)CC[C@]3(C)[C@H](C(=O)C=C4[C@@]5(C)C=C(C#N)C(=O)C(C)(C)[C@@H]5CC[C@]43C)[C@@H]2C1` had an IC50 of 0.014 nM. This IC50 is about 7.9-fold lower than that of the compound before. Next, `CC(=O)OC[C@H]1O[C@@H](OC(=O)[C@]23CCC(C)(C)CC2C2C(=O)C=C4[C@@]5(C)C=C(C#N)C(=O)C(C)(C)[C@@H]5CC[C@@]4(C)[C@]2(C)CC3)[C@H](OC(C)=O)[C@H](OC(C)=O)[C@@H]1OC(C)=O` (stereo not given in full): 0.07 nM; `CC1(C)CC[C@]2(C(=O)O)CC[C@]3(C)C(=CC[C@@H]4[C@@]5(C)CC[C@H](O)C(C)(C)[C@@H]5CC[C@]43C)[C@@H]2C1` [OLEANOLIC_ACID]: more than 40000 nM; `CC1(C)CC[C@]2(C(=O)O)CC[C@]3(C)[C@H](C(=O)C=C4[C@@]5(C)C=C(C#N)C(=O)C(C)(C)[C@@H]5CC[C@]43C)[C@@H]2C1` [BARDOXOLONE]: 0.44 nM. In turn, `CC1(C)CC[C@]2(C(=O)OCc3ccccc3)CC[C@]3(C)C(C(=O)C=C4[C@@]5(C)C=C(C#N)C(=O)C(C)(C)[C@@H]5CC[C@]43C)C2C1` (stereo not given in full) came in with an IC50 of 4.35 nM.

Compound `CCOC(=O)[C@]12CCC(C)(C)CC1C1C(=O)C=C3[C@@]4(C)C=C(C(=O)O)C(=O)C(C)(C)[C@@H]4CC[C@@]3(C)[C@]1(C)CC2` (stereo not given in full) returned an IC50 of 7.93 nM. The figure for `CCCCOC(=O)[C@]12CCC(C)(C)CC1C1C(=O)C=C3[C@@]4(C)C=C(C#N)C(=O)C(C)(C)[C@@H]4CC[C@@]3(C)[C@]1(C)CC2` (stereo not given in full) is 6.65 nM; for `CN(C)C(=O)[C@]12CCC(C)(C)CC1C1C(=O)C=C3[C@@]4(C)C=C(C#N)C(=O)C(C)(C)[C@@H]4CC[C@@]3(C)[C@]1(C)CC2` (stereo not given in full) it is 1.55 nM. Next, `CC1(C)CC[C@]2(C(=O)n3cccn3)CC[C@]3(C)C(C(=O)C=C4[C@@]5(C)C=C(C#N)C(=O)C(C)(C)[C@@H]5CC[C@]43C)C2C1` (stereo not given in full): 12 nM. Next, `CC1(C)CC[C@]2(C(=O)N3CCCC3)CC[C@]3(C)C(C(=O)C=C4[C@@]5(C)C=C(C#N)C(=O)C(C)(C)[C@@H]5CC[C@]43C)C2C1` (stereo not given in full): 0.8 nM; `CC1(C)CC[C@]2(C(=O)NCc3ccccc3)CC[C@]3(C)C(C(=O)C=C4[C@@]5(C)C=C(C#N)C(=O)C(C)(C)[C@@H]5CC[C@]43C)C2C1` (stereo not given in full): 9.2 nM.

`CC1(C)CC[C@]2(C(=O)Nc3ccccc3)CC[C@]3(C)C(C(=O)C=C4[C@@]5(C)C=C(C#N)C(=O)C(C)(C)[C@@H]5CC[C@]43C)C2C1` (stereo not given in full): the midpoint of inhibition, the IC50, lay at 28.6 nM. The figure for `CC1(C)CC[C@]2(C#N)CC[C@]3(C)C(C(=O)C=C4[C@@]5(C)C=C(C(=O)O)C(=O)C(C)(C)[C@@H]5CC[C@]43C)C2C1` (stereo not given in full) is 1.68 nM. As for `CC1(C)CC[C@]2(C(=O)NN)CC[C@]3(C)C(C(=O)C=C4[C@@]5(C)C=C(C#N)C(=O)C(C)(C)[C@@H]5CC[C@]43C)C2C1` (stereo not given in full), it took 0.26 nM to reach half-maximal inhibition (IC50). This IC50 lies about 6.5-fold lower than the previous one.

For `CC1(C)CC[C@]2(C(=O)OCC3CC3)CC[C@]3(C)C(C(=O)C=C4[C@@]5(C)C=C(C#N)C(=O)C(C)(C)[C@@H]5CC[C@]43C)C2C1` (stereo not given in full), it took 4.45 nM to reach half-maximal inhibition (IC50).

`CCCCCCCCOC(=O)[C@]12CCC(C)(C)CC1C1C(=O)C=C3[C@@]4(C)C=C(C#N)C(=O)C(C)(C)[C@@H]4CC[C@@]3(C)[C@]1(C)CC2` (stereo not given in full) returned an IC50 of 60.4 nM. The figure for `CCCN(CCC)C(=O)[C@]12CCC(C)(C)CC1C1C(=O)C=C3[C@@]4(C)C=C(C#N)C(=O)C(C)(C)[C@@H]4CC[C@@]3(C)[C@]1(C)CC2` (stereo not given in full) is 32.9 nM; for `CNC(=O)[C@]12CCC(C)(C)CC1C1C(=O)C=C3[C@@]4(C)C=C(C#N)C(=O)C(C)(C)[C@@H]4CC[C@@]3(C)[C@]1(C)CC2` (stereo not given in full) it is 0.58 nM; for `CC1(C)CC[C@]2(C(=O)N3CCCCC3)CC[C@]3(C)C(C(=O)C=C4[C@@]5(C)C=C(C#N)C(=O)C(C)(C)[C@@H]5CC[C@]43C)C2C1` (stereo not given in full) it is 0.95 nM.

`CC1(C)CC[C@]2(C#N)CC[C@]3(C)C(C(=O)C=C4[C@@]5(C)C=C(C#N)C(=O)C(C)(C)[C@@H]5CC[C@]43C)C2C1` (stereo not given in full) [CDDO-CN] had an IC50 of 0.0035 nM. Next, `CC1(C)CC[C@]2(C(=O)N3CCC(N4CCCCC4)CC3)CC[C@]3(C)C(C(=O)C=C4[C@@]5(C)C=C(C#N)C(=O)C(C)(C)[C@@H]5CC[C@]43C)C2C1` (stereo not given in full): 1 nM; `CCOC(=O)[C@]12CCC(C)(C)CC1C1C(=O)C=C3[C@@]4(C)C=C(C#N)C(=O)C(C)(C)[C@@H]4CC[C@@]3(C)[C@]1(C)CC2` (stereo not given in full): 0.8 nM. The figure for `CCCCCCNC(=O)[C@]12CCC(C)(C)CC1C1C(=O)C=C3[C@@]4(C)C=C(C#N)C(=O)C(C)(C)[C@@H]4CC[C@@]3(C)[C@]1(C)CC2` (stereo not given in full) is 14.9 nM. The figure for `C=CCOC(=O)[C@]12CCC(C)(C)CC1C1C(=O)C=C3[C@@]4(C)C=C(C#N)C(=O)C(C)(C)[C@@H]4CC[C@@]3(C)[C@]1(C)CC2` (stereo not given in full) is 1.33 nM; for `COC(=O)[C@]12CCC(C)(C)CC1C1C(=O)C=C3[C@@]4(C)C=C(C(=O)O)C(=O)C(C)(C)[C@@H]4CC[C@@]3(C)[C@]1(C)CC2` (stereo not given in full) it is 9.55 nM. `CC1(C)CC[C@]2(C(=O)O[C@@H]3O[C@H](CO)[C@@H](O)[C@H](O)[C@H]3O)CC[C@]3(C)C(C(=O)C=C4[C@@]5(C)C=C(C#N)C(=O)C(C)(C)[C@@H]5CC[C@]43C)C2C1` (stereo not given in full) gave an IC50 of 10.1 nM.

These data come from ChEMBL document CHEMBL1135965, “A novel dicyanotriterpenoid, 2-cyano-3,12-dioxooleana-1,9(11)-dien-28-onitrile, active at picomolar concentrations for inhibition of nitric oxide production” (Bioorg Med Chem Lett, 2002).
